From patent US10442763B2, “EBNA1 inhibitors and methods using same” (priority 2015, dated 2019)

Target: T1, His-EBNA1 (DNA binding domain of EBNA1, amino acids 459-607) (Epstein-Barr virus, UniProt P03211)
T1 construct: made in house; host or cells: E. coli
Assay: Inhibition of 5'-biotin-oPL4624 binding to His-EBNA1 using Alpha Screen technology
Experimental: Inhibition of 5′-Biotin-oPL4624 Binding to his-EBNA1 Using Alpha Screen Technology
Assays were performed using the DNA binding domain of EBNA1 (amino acids 459-607), which was His-tagged (His-EBNA1) and the self-complementary biotinylated (bt) oligonucleotide with the sequence 5′-bt-[…]-ATGCTACCC-3′ (bt-oPL4624; or 5′-bt-SEQ ID NO: 1). The protein was expressed in E. coli and purified according to Barwell, et al., 1995, J Biol Chem. 270:20556-9.). The bt-oPL4624 oligonucleotide was purchased from Integrated DNA Technologies, Inc (IDT). AlphaScreen donor, acceptor beads and white, opaque 384-well assay plates were purchased from PerkinElmer, Inc.
Assays contained 15 nM His-EBNA1, 0.2 nM bt-oPL4624, 5 μg/mL AlphaScreen streptavidin donor beads and nickel chelate acceptor beads, and a series of concentrations of test compound ranging from 3.2 nM to 100 μM in a total volume of 40 μL assay buffer (25 mM Tris, pH 7.2, 160 mM NaCl, 1 mM MgCl2). His-EBNA1 (30 nM) and bt-oPL4624 (0.4 nM) were preincubated with 10 μg/mL nickel chelate AlphaScreen acceptor bead, or 10 μg/mL streptavidin AlphaScreen donor bead, respectively, for 30 minutes at room temperature in assay buffer. Twenty microliters of His-EBNA1/acceptor bead mix and bt-oPL4624/donor bead mix were transferred to assay plates containing 0.4 μL of 1:3 serial dilutions of test compounds previously prepared in DMSO at concentrations ranging from 0.32 μM to 10 mM. Non-specific binding was determined with 5 μg/mL AlphaScreen acceptor bead in the absence of His-EBNA1. After 2 hr incubation at room temperature, the AlphaScreen signal was measured on the Envision plate reader (PerkinElmer, Inc.) at 680 nm excitation and 570 nm emission. Inhibition values at each concentration of test compound were determined by setting 100% equal to raw data values in the absence of EBNA1 and 0% equal to the raw data values in the presence of EBNA1. Nonlinear regression fits of the inhibition values to a one-site dose-response equation were performed using GraphPad Prism.

T1 sequence (P03211 459-607): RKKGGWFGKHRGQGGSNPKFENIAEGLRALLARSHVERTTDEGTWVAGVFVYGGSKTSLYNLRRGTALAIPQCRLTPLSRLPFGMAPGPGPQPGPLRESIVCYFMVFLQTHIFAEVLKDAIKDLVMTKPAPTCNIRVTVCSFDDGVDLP

SMILES	IC50
CS(=O)(=O)Nc1cccc(CN2CCc3cc(C#Cc4cccc(C(=O)O)c4-c4ccc5cc[nH]c5c4)ccc3C2)c1 [Entry 66]	1 to 10 µM
CS(=O)(=O)Nc1cccc(CN2CCc3ccc(C#Cc4cccc(C(=O)O)c4-c4ccc5cc[nH]c5c4)cc3C2)c1 [Entry 67]	1 to 10 µM
CS(=O)(=O)N1CCC(N2Cc3ccc(C#Cc4cccc(C(=O)O)c4-c4ccc5cc[nH]c5c4)cc3C2)C1 (stereo not drawn) [Entry 68]	1 to 10 µM
CS(=O)(=O)N1CC(N2Cc3ccc(C#Cc4cccc(C(=O)O)c4-c4ccc5cc[nH]c5c4)cc3C2)C1 [Entry 69]	1 to 10 µM
CS(=O)(=O)N1CCC(CN2Cc3ccc(C#Cc4cccc(C(=O)O)c4-c4ccc5cc[nH]c5c4)cc3C2)C1 (stereo not drawn) [Entry 70]	1 to 10 µM
CS(=O)(=O)N1CC(CN2Cc3ccc(C#Cc4cccc(C(=O)O)c4-c4ccc5cc[nH]c5c4)cc3C2)C1 [Entry 71]	10 to 100 µM
CS(=O)(=O)N1CCC(CN2Cc3ccc(C#Cc4cccc(C(=O)O)c4-c4ccc5cc[nH]c5c4)cc3C2)CC1 [Entry 72]	10 to 100 µM
CS(=O)(=O)N1CCc2ccc(C#Cc3cccc(C(=O)O)c3-c3ccc4cc[nH]c4c3)cc2C1 [Entry 73]	1 to 10 µM
CC(C)S(=O)(=O)N1CCc2ccc(C#Cc3cccc(C(=O)O)c3-c3ccc4cc[nH]c4c3)cc2C1 [Entry 74]	1 to 10 µM
CCC(=O)N1CCc2ccc(C#Cc3cccc(C(=O)O)c3-c3ccc4cc[nH]c4c3)cc2C1 [Entry 75]	10 to 100 µM
CS(=O)(=O)N1CCc2cc(C#Cc3cccc(C(=O)O)c3-c3ccc4cc[nH]c4c3)ccc2C1 [Entry 76]	1 to 10 µM
CC(C)S(=O)(=O)N1CCc2cc(C#Cc3cccc(C(=O)O)c3-c3ccc4cc[nH]c4c3)ccc2C1 [Entry 77]	1 to 10 µM
CC(=O)N1CCc2cc(C#Cc3cccc(C(=O)O)c3-c3ccc4cc[nH]c4c3)ccc2C1 [Entry 78]	1 to 10 µM
CCC(=O)N1CCc2cc(C#Cc3cccc(C(=O)O)c3-c3ccc4cc[nH]c4c3)ccc2C1 [Entry 79]	1 to 10 µM
N#Cc1cccc(OCc2ccc(C#Cc3cccc(C(=O)O)c3-c3ccc4cc[nH]c4c3)cc2)c1 [Entry 81]	1 to 10 µM
NC(=O)c1cccc(OCc2ccc(C#Cc3cccc(C(=O)O)c3-c3ccc4cc[nH]c4c3)cc2)c1 [Entry 82]	1 to 10 µM
O=C(O)c1cccc(C#Cc2ccc(COc3ccc(C(F)(F)F)cc3)cc2)c1-c1ccc2cc[nH]c2c1 [Entry 83]	1 to 10 µM
O=C(O)c1cccc(C#Cc2ccc(COc3cccc(C(F)(F)F)c3)cc2)c1-c1ccc2cc[nH]c2c1 [Entry 84]	1 to 10 µM
COc1ccc(OCc2ccc(C#Cc3cccc(C(=O)O)c3-c3ccc4cc[nH]c4c3)cc2)cc1 [Entry 85]	1 to 10 µM
NC(=O)c1ccc(OCc2ccc(C#Cc3cccc(C(=O)O)c3-c3ccc4cc[nH]c4c3)cc2)cc1 [Entry 86]	1 to 10 µM
COc1cccc(OCc2ccc(C#Cc3cccc(C(=O)O)c3-c3ccc4cc[nH]c4c3)cc2)c1 [Entry 87]	1 to 10 µM
O=C(O)c1cccc(C#Cc2ccc(COc3ccccc3)cc2)c1-c1ccc2cc[nH]c2c1 [Entry 88]	1 to 10 µM

SMILES	IC50
O=C(O)c1cccc(C#Cc2ccc(COc3ccccc3F)cc2)c1-c1ccc2cc[nH]c2c1 [Entry 89]	1 to 10 µM
O=C(O)c1cccc(C#Cc2ccc(COc3cccnc3)cc2)c1-c1ccc2cc[nH]c2c1 [Entry 90]	1 to 10 µM
O=C(O)c1cccc(C#Cc2ccc(COc3cccc(Cl)c3)cc2)c1-c1ccc2cc[nH]c2c1 [Entry 91]	1 to 10 µM
O=C(O)c1cccc(C#Cc2ccc(COc3ccc(Cl)c(Cl)c3)cc2)c1-c1ccc2cc[nH]c2c1 [Entry 92]	1 to 10 µM
O=C(O)c1cccc(C#Cc2ccc(COc3ccccc3C(F)(F)F)cc2)c1-c1ccc2cc[nH]c2c1 [Entry 93]	1 to 10 µM
N#Cc1ccccc1OCc1ccc(C#Cc2cccc(C(=O)O)c2-c2ccc3cc[nH]c3c2)cc1 [Entry 94]	1 to 10 µM
CS(=O)(=O)c1ccc(OCc2ccc(C#Cc3cccc(C(=O)O)c3-c3ccc4cc[nH]c4c3)cc2)cc1 [Entry 95]	1 to 10 µM
O=C(O)c1cccc(C#Cc2ccc(COc3cncnc3)cc2)c1-c1ccc2cc[nH]c2c1 [Entry 96]	1 to 10 µM
CS(=O)(=O)c1ccccc1OCc1ccc(C#Cc2cccc(C(=O)O)c2-c2ccc3cc[nH]c3c2)cc1 [Entry 97]	1 to 10 µM
CS(=O)(=O)c1cccc(OCc2ccc(C#Cc3cccc(C(=O)O)c3-c3ccc4cc[nH]c4c3)cc2)c1 [Entry 98]	1 to 10 µM
CS(=O)(=O)Nc1cccc(-c2cccc(C#Cc3cccc(C(=O)O)c3-c3ccc4cc[nH]c4c3)c2)c1 [Entry 99]	1 to 10 µM
O=C(O)c1cccc(C#Cc2ccc(OC3CCOCC3)nc2)c1-c1ccc2cc[nH]c2c1 [Entry 100]	1 to 10 µM
CCCNC(=O)c1cc2ccc(C#Cc3cccc(C(=O)O)c3-c3ccc4cc[nH]c4c3)cc2[nH]1 [Entry 101]	1 to 10 µM
O=C(O)c1cccc(C#Cc2cccc(CN3CCc4ccccc4C3)c2)c1-c1ccc2cc[nH]c2c1 [Entry 102]	1 to 10 µM
N#Cc1cc(C#Cc2cccc(C(=O)O)c2-c2ccc3cc[nH]c3c2)ccc1OC1CCOCC1 [Entry 103]	1 to 10 µM
CCOC(=O)N1CCN(Cc2cccc(C#Cc3cccc(C(=O)O)c3-c3ccc4cc[nH]c4c3)c2)CC1 [Entry 104]	10 to 100 µM
O=C(O)c1cccc(C#Cc2ccc(C3(CO)COC3)cc2)c1-c1ccc2cc[nH]c2c1 [Entry 105]	1 to 10 µM
Nc1cc(-c2cccc(C#Cc3cccc(C(=O)O)c3-c3ccc4cc[nH]c4c3)c2)n[nH]1 [Entry 106]	1 to 10 µM
O=C(O)c1cccc(C#Cc2cccc(-c3cnco3)c2)c1-c1ccc2cc[nH]c2c1 [Entry 107]	1 to 10 µM
O=C(O)c1cccc(C#Cc2ccc(C(=O)C3CCOCC3)cc2)c1-c1ccc2cc[nH]c2c1 [Entry 108]	1 to 10 µM
O=C(O)c1cccc(C#Cc2ccccc2)c1-c1ccc2cc[nH]c2c1F [Entry 109]	10 to 100 µM
O=C(O)c1cccc(C#Cc2ccccc2)c1-c1ccc2ncsc2c1 [Entry 110]	10 to 100 µM

SMILES	IC50
O=C(O)c1cccc(C#Cc2ccccc2)c1-c1ccc2scnc2c1 [Entry 111]	10 to 100 µM
Cc1nc2cc(-c3c(C#Cc4ccccc4)cccc3C(=O)O)ccc2s1 [Entry 112]	10 to 100 µM
O=C(O)c1cccc(C#Cc2ccccc2)c1-c1cc2[nH]ccc2cc1F [Entry 113]	1 to 10 µM
O=C(O)c1cccc(C#Cc2ccccc2)c1-c1cc2cc[nH]c2cc1F [Entry 114]	10 to 100 µM
O=C(O)c1cccc(C#Cc2ccccc2)c1-c1cnc2ncccc2c1 [Entry 115]	100 to 1000 µM
Cn1ccc2ccc(-c3c(C#Cc4ccccc4)cccc3C(=O)O)nc21 [Entry 116]	10 to 100 µM
O=C(O)c1cccc(C#Cc2ccccc2)c1-c1ccc2cccnc2n1 [Entry 117]	10 to 100 µM
O=C(O)c1cccc(C#Cc2ccccc2)c1-c1ccc2cc[nH]c2n1 [Entry 118]	100 to 1000 µM
COc1cc(-c2c(C#Cc3ccccc3)cccc2C(=O)O)cc2[nH]ccc12 [Entry 119]	1 to 10 µM
CC(C)(O)c1ccc(C#Cc2cccc(C(=O)O)c2-c2ccc3cc[nH]c3c2)cc1 [Entry 120]	1 to 10 µM
Nc1nc(-c2ccc(C#Cc3cccc(C(=O)O)c3-c3ccc4cc[nH]c4c3)cc2)cs1 [Entry 121]	1 to 10 µM
NS(=O)(=O)c1cccc(C#Cc2cccc(C(=O)O)c2-c2ccc3cc[nH]c3c2)c1 [Entry 122]	10 to 100 µM
Nc1ccc(C#Cc2cccc(C(=O)O)c2-c2ccc3cc[nH]c3c2)cc1S(N)(=O)=O [Entry 123]	10 to 100 µM
CC(C)(C)OC(=O)N1CCC2(CC1)CC(=O)c1cc(C#Cc3cccc(C(=O)O)c3-c3ccc4cc[nH]c4c3)ccc1O2 [Entry 124]	1 to 10 µM
Nc1nc(-c2cccc(C#Cc3cccc(C(=O)O)c3-c3ccc4cc[nH]c4c3)c2)cs1 [Entry 125]	1 to 10 µM
Nc1nnc(-c2ccc(C#Cc3cccc(C(=O)O)c3-c3ccc4cc[nH]c4c3)cc2)s1 [Entry 127]	1 to 10 µM
Nc1cc(-c2ccc(C#Cc3cccc(C(=O)O)c3-c3ccc4cc[nH]c4c3)cc2)[nH]n1 [Entry 128]	1 to 10 µM
Nc1nc(-c2ccc(C#Cc3cccc(C(=O)O)c3-c3ccc4cc[nH]c4c3)cc2)c(C(=O)O)s1 [Entry 129]	< 1 µM
Nc1ncc(-c2ccc(C#Cc3cccc(C(=O)O)c3-c3ccc4cc[nH]c4c3)cc2)o1 [Entry 130]	1 to 10 µM
CS(=O)(=O)Nc1nc(-c2ccc(C#Cc3cccc(C(=O)O)c3-c3ccc4cc[nH]c4c3)cc2)cs1 [Entry 131]	< 1 µM
CS(=O)(=O)Nc1nc(-c2cccc(C#Cc3cccc(C(=O)O)c3-c3ccc4cc[nH]c4c3)c2)cs1 [Entry 132]	< 1 µM
COC1CCN(Cc2nc(=O)c3cc(C#Cc4cccc(C(=O)O)c4-c4ccc5cc[nH]c5c4)ccc3[nH]2)CC1 [Entry 133]	10 to 100 µM
